Laboratory results from the CheMixHub ionic liquid set.
Where “and” joins values, the source holds several entries; their conditions need not be identical. Equal values may be shown once.

Test: xn = mol fraction of the nth substance listed

CCCOCCO + CCCC[n+]1ccn(C)c1.[Br-]
100 kPa, x2 = 0
Details	viscosity [mPa·s]
298.15 K	2.38
303.15 K	2.11
308.15 K	1.88
313.15 K	1.69

CCCC[n+]1ccn(C)c1.F[B-](F)(F)F + ClCCl
298.15 K, 101 kPa, x2 = 0
Details	electrical conductivity [S/m]	viscosity [mPa·s]
–	0.194	116

CCCC[n+]1ccn(C)c1.F[B-](F)(F)F + CC(C)C[C@H](N)C(=O)O + O
viscosity [mPa·s], 100 kPa
Details	293.15 K	298.15 K	303.15 K	308.15 K	313.15 K	318.15 K
x2 = 0, x1 = 0.0003729	1.03	0.917	0.835	0.751	0.693	0.638
x2 = 0, x1 = 0.0007257	1.062	0.951	0.868	0.789	0.736	0.681
x2 = 0, x1 = 0.0011	1.093	0.983	0.904	0.83	0.779	0.725

CCCC[n+]1ccn(C)c1.F[B-](F)(F)F + NCCNCCN
101.3 kPa, x1 = 1
Details	viscosity [mPa·s]
298.15 K	101.1
303.15 K	81.9
308.15 K	63.6

CCC[N+]1(C)CCCC1.O=S(=O)([N-]S(=O)(=O)C(F)(F)F)C(F)(F)F + CCCC[N+]1(C)CCCC1.O=S(=O)([N-]S(=O)(=O)C(F)(F)F)C(F)(F)F
101 kPa
Details	electrical conductivity [S/m]	viscosity [mPa·s]
293.15 K, x2 = 0.25	0.248	81.4
333.15 K, x2 = 0	1.18	18.8
333.15 K, x2 = 0.75	1.01	20.7
353.15 K, x2 = 0.5	1.5	12.2

O + CCCCCCCCCCCCCCCC[n+]1ccccc1.O=C([O-])C(O)c1ccccc1 + C[C@H](N)C(=O)O
101 kPa, x2 = 0, x3 = 0
Details	electrical conductivity [S/m]
293.15 K	0.00012
298.15 K	0.00015
303.15 K	0.00016
308.15 K	0.00017
313.15 K	0.00019

CCCC[n+]1ccn(C)c1.F[B-](F)(F)F + CCCC[n+]1ccn(C)c1.COS(=O)(=O)[O-]
101 kPa, x1 = 1
Details	viscosity [mPa·s]
302.15 K	88.7
305.15 K	76.8

CC(=O)[O-].CCCC[n+]1ccn(C)c1 + NCCN1CCNCC1 + O
viscosity [mPa·s], 101 kPa
Details	298.15 K	303.15 K	308.15 K	313.15 K	318.15 K	323.15 K	328.15 K	333.15 K
x1 = 0.03479, x2 = 0	2.23	2.18	2.16	2.13	1.74	1.58	1.51	1.24
x1 = 0.03897, x2 = 0	2.35	2.29	2.25	2.22	2.11	2.07	1.91	1.86
x1 = 0.04311, x2 = 0	2.66	2.63	2.56	2.49	2.29	2.26	2.02	1.97

CC[NH+](C)CC.O=S(=O)([O-])C(F)(F)F + O
101 kPa
Details	viscosity [mPa·s]
293.15 K, x2 = 0.759	7.65
313.15 K, x2 = 0.037	25.8
333.15 K, x2 = 0.434	7.33
333.15 K, x2 = 0.759	2.81
333.15 K, x2 = 0.844	1.94
353.15 K, x2 = 0.434	4.89
353.15 K, x2 = 0.759	2.01

CCCC[n+]1ccn(C)c1.F[B-](F)(F)F + C=CC(=O)OC
101 kPa, x1 = 1
Details	viscosity [mPa·s]
303.15 K	76.3
313.15 K	46.2

CCCC[n+]1ccn(C)c1.F[B-](F)(F)F + CCC(C)=O
100 kPa, x1 = 1
Details	viscosity [mPa·s]
303.15 K	85.4
313.15 K	53.84
323.15 K	36.27
333.15 K	25.46

CC[n+]1ccn(C)c1.N#C[N-]C#N + CCO
viscosity [mPa·s]
Details	298.15 K	303.15 K	308.15 K	313.15 K	318.15 K	323.15 K	328.15 K	343.15 K
100 kPa, x1 = 0.0997	1.85	1.71	1.56	1.44	1.33	1.23	–	–
100 kPa, x1 = 0.196	2.7	2.47	2.25	2.07	1.9	1.75	–	–
100 kPa, x1 = 0.3001	3.66	3.31	3.02	2.76	2.53	2.33	–	–
100 kPa, x1 = 0.3945	4.62	4.16	3.78	3.45	3.16	2.9	–	–
100 kPa, x1 = 0.4997	5.82	5.23	4.72	4.29	3.92	3.59	–	–
100 kPa, x1 = 0.5993	7.11	6.35	5.71	5.16	4.7	4.29	–	–
100 kPa, x1 = 0.7013	8.69	7.71	6.89	6.19	5.61	5.1	–	–
100 kPa, x1 = 0.8014	10.45	9.21	8.17	7.3	6.57	5.95	–	–
100 kPa, x1 = 0.8929	11.97	10.48	9.25	8.23	7.37	6.65	–	–
100 kPa, x1 = 1	13.09	11.39	10	8.86	7.92	7.13	–	–
101 kPa, x2 = 0	–	–	–	10.07	–	–	7.26	–
101 kPa, x2 = 0.1981	–	–	–	–	–	–	–	4.25
101 kPa, x2 = 0.3596	–	–	–	5.68	–	–	4.29	–
101 kPa, x2 = 0.6028	4.42	–	–	–	–	–	–	–
101 kPa, x2 = 0.7678	2.72	–	–	–	–	–	–	–

CC[n+]1ccn(C)c1.N#C[N-]C#N + OCC(F)(F)F
100 kPa
Details	viscosity [mPa·s]
298.15 K, x1 = 0.2936	4.06
298.15 K, x1 = 0.3935	5.03
303.15 K, x1 = 0.1031	2.18
303.15 K, x1 = 0.5915	6.32
308.15 K, x1 = 0.8915	8.72
313.15 K, x1 = 1	8.86
318.15 K, x1 = 0.1957	2.07
318.15 K, x1 = 0.2936	2.62

CC(=O)[O-].CCCC[n+]1ccn(C)c1 + CCCC[n+]1ccn(C)c1.O=S(=O)([N-]S(=O)(=O)C(F)(F)F)C(F)(F)F
101 kPa
Details	electrical conductivity [S/m]	viscosity
283.15 K, x2 = 0	0.0145	1815 mPa·s
283.15 K, x2 = 0.1057	0.0213	1212 mPa·s
283.15 K, x2 = 0.3662	0.0403	565 mPa·s
298.15 K, x2 = 0.8097	0.28	73 mPa·s
303.15 K, x1 = 0.5001	–	100 mPa·s
303.15 K, x1 = 0.7497	–	161.5 mPa·s
313.15 K, x2 = 0	0.138	154 mPa·s
313.15 K, x2 = 0.1057	0.168	128 mPa·s
313.15 K, x2 = 0.3662	0.236	82 mPa·s
313.15 K, x2 = 0.6541	0.387	49.4 mPa·s
313.15 K, x2 = 0.8097	0.504	38.2 mPa·s
314.3 K, x2 = 0	–	126 mPa·s and 138 mPa·s
314.3 K, x2 = 0.7282	0.474	39.2 mPa·s
323.15 K, x1 = 0.7497	–	56 mPa·s
333.15 K, x2 = 0.1057	0.416	47.4 mPa·s

CC(O)C(=O)[O-].CN(C)CCOCC[NH+](C)C + O
Details	viscosity [mPa·s]
298.15 K, 100 kPa, x1 = 0.06665	2.86
